Laboratory results published in patent publication US20130324605A1, “USES OF CIMIRACEMATE A AND RELATED COMPOUNDS FOR TREATING INFLAMMATION AND MODULATING IMMUNE RESPONSES” (VERSITECH LIMITED, priority 2010, published 2013).

What was measured:
[1] = test system: leukotriene B4 (LTB4) production; assay: Leukotriene B4 production in activated human blood mononuclear cells; type: cell-based; details: 25 or 50 μg/ml for 1 hour, then calcium ionophore A23187 30 min, PBMC, FIG. 1B
Protocol: Freshly isolated human blood mononuclear cells (PBMC) (1×10^7) were pre-treated with 0.05% DMSO or Cim A (25 or 50 μg/ml) for 1 h, followed by addition of 5 μM Calcium ionophore A23187 (Sigma Aldrich, St. Louis, Mo.) for 30 min. After centrifugation for 1 min, the supernatants were collected. The level of leukotriene B4 (LTB4) was measured using LTB4 parameter assay kit (R&D Systems, Minneapolis, Minn.).
This Example investigates the effects of Cim A on LTB4 production. Briefly, freshly isolated human blood mononuclear cells (1×10^7) were pretreated with 0.05% DMSO or Cim A (25 or 50 μg/ml) for 1 hour, followed by the addition of calcium ionophore A23187 at a concentration of […] (Sigma Aldrich, St. Louis, Mo.) for 30 min. After centrifugation for 1 min, the supernatant was collected. The level of leukotriene B4 (LTB4) was measured by using a LTB4 assay kit (R&D Systems, Minneapolis, Minn.).

[2] = test system: ERK1/2; assay: LPS-induced phosphorylation of ERK1/2 in PBMac (Western blot); type: cell-based, human; details: 140 μM for 24 h prior to 10 ng/mL LPS for 15 min
Protocol: FIGS. 7A-7C show the effects of Cim A (B22EES1-8-3) on LPS-induced phosphorylation (phospho-) of ERK1/2 and p38 MAP kinases, and nuclear translocation of NF-KB p65. PBMac were incubated with B22EES1-8-3 (140 μM) for 24 h prior to the addition of 10 ng/mL LPS for an additional 15 min. Cytoplasmic (A, B) and nuclear (C) proteins were harvested for Western Blotting: (A) Cytoplasmic proteins: phospho-ERK1/2 and total ERK1/2. (B) Cytoplasmic proteins: phospho-p38 and total p38 kinase. (C) Nuclear proteins: upper panel, NF-κB p65 and lamin B; lower panel, the intensity of corresponding lanes in the gel photograph of NF-κB p65 was shown. […]
Whole cell lysate (20 μg) or nuclear protein (2 μg) were separated by sodium dodecyl sulfate polyacrylamide gel electrophoresis (SDS-PAGE) and transferred to nitrocellulose membranes for probing overnight with the respective antibodies specific for the phosphorylated or total form of ERK1/2 and p38 MAPK (Cell Signaling Technology, Beverly, Mass.), NF-KB p65 protein and lamin B (Santa Cruz Biotechnology, Santa Cruz, Calif.). […] In order to quantify the results from the Western blots, the gels were scanned and the intensity of the bands was analyzed by a computer program Quantity One from BioRad. […]

[3] = test system: 5-LOX; assay: 5-LOX inhibitor screening assay (Cayman kit); type: biochemical; details: 12.5, 25 and 50 μg/ml, linoleic acid substrate, 5 min incubation, FIG. 1A
Protocol: The 5-LOX inhibition assay was performed using Cayman's Lipoxygenase Inhibitor Screening Assay Kit (Cayman Chemical Company, Ann Arbor, Mich.) according to the manufacturer's instructions. The 5-LOX enzyme and Linoleic acid (Substrate) were added together in the presence of DMSO (Control) and Cim A at a concentration ranging from 12.5 to 50 μg/ml. After incubation for 5 min, developing agents were added. The production of hydroperoxides was measured and quantified with the use of a microplate reader at wavelength of 490 nm. The 5-LOX enzymatic activity is calculated as nmol/min/ml.
Briefly, 5-LOX inhibition assay was performed by using Cayman's lipoxygenase inhibitor screening assay kit (Cayman Chemical Company, Ann Arbor, Mich.) according to the manufacturer's instructions. The 5-LOX and linoleic acid (substrate) were added simultaneously into dimethyl sulfoxide (DMSO) (Control) or Cim A at a concentration of 12.5, 25, and 50 μg/ml, respectively. After incubation for 5 min, developing reagents for the 5-LOX inhibition assay were added. Hydroperoxide production was measured using a microplate reader at a wavelength of 490 nm. The 5-LOX enzymatic activity is calculated as nmol/min/ml.

[4] = test system: LPS-induced TNF-α protein production; assay: LPS-induced TNF-α production in primary blood macrophages (ELISA); type: cell-based; details: Homo sapiens, Macrophage, PBMac
Protocol: FIGS. 6A-6B show inhibition of LPS-induced TNF-α production by B22EES1-8-3 and dexamethasone. PBMac were incubated with (A) 140 μM B22EES1-8-3 or (B) 1.3 or 5.1 μM dexamethasone (Dex) for 24 hr prior to the addition of 1 ng/mL and 10 ng/mL LPS for another 24 hr. The culture supernatants were collected and assayed for TNF-α by ELISA. The results shown were the mean values±standard derivation (S.D.) of 6 independent experiments, with cells obtained from different donors. * P<0.05, compared with the corresponding control.
Cell Culture and Primary Blood Macrophage Isolation Human peripheral blood monocytic cells (PBMC) were isolated from the buffy coat of healthy donor blood supplied by Hong Kong Red Cross by Ficoll-Paque (Amersham Pharmacia Biotech, Piscataway, N.J.) density gradient centrifugation as described in our previous reports^36-38. In brief, the buffy coat was spun at 3000 rotations per min (rpm) for 15 min to separate the blood cells and the plasma. The heat inactivated serum was filtered for future use.
The adherent monocytic cells were detached and seeded onto tissue culture plates and incubated for another 7-14 days in order to differentiate the primary blood monocytic cells to primary blood macrophages (PBMac).
Culture supernatants of the LPS-treated PBMac, with or without B22EES1-8-3 pretreatment, were collected at different time intervals and stored at −70° C. The levels of the secreted TNF-α were measured by ELISA kits specific for the cytokine (R&D system, Minneapolis, Minn.).
To confirm the activities of Cim A in suppressing TNF-α production, Cim A was incubated with PBMac for 24 hr prior the addition of LPS at concentrations of 1 ng/mL and 10 ng/mL for 24 hr. The culture supernatants were collected and measured by ELISA for the level of secreted TNF-α.
To further compare the efficiency of Cim A with existing drugs, dexamethasone, a potent immunosuppressive corticosteroid, was used as a prototype. PBMac were treated with dexamethasone for 24 hr prior to the addition of LPS at concentrations of 1 ng/mL and 10 ng/mL for 24 hr.

SMILES	production of LTB4 [1]	LPS-induced phosphorylation of ERK1/2 [2]	5-LOX enzymatic activity (hydroperoxide production) [3]	inhibition at 140 µM ([4]; 140 μM for 24 hr prior to LPS 1 ng/mL for 24 hr)	inhibition at 140 µM ([4]; 140 μM for 24 hr prior to LPS 10 ng/mL for 24 hr)	inhibition at 1.3 µM ([4]; 1.3 μM for 24 hr prior to LPS for 24 hr)	inhibition at 5.1 µM ([4]; 5.1 μM for 24 hr prior to LPS for 24 hr)
COc1ccc(/C=C/C(=O)OCC(=O)Cc2ccc(O)c(O)c2)cc1O [Cim A, Cimiracemate A]	inhibits the production of LTB4 in a dose-dependent manner	suppressed	potently suppressed 5-LOX activity in a dose-dependent manner	47 ± 19%	58 ± 30%		
C[C@@H]1C[C@H]2[C@@H]3CCC4=CC(=O)C=C[C@]4(C)[C@@]3(F)[C@@H](O)C[C@]2(C)[C@@]1(O)C(=O)CO [dexamethasone, Dexamethasone, reference compound]						32 ± 7.5%	25 ± 6.3%
